Test: Inhibition of ABCB1 in human K562/A02 cells assessed as potentiation of adriamycin-induced cytotoxicity by measuring compound concentration required for reduction of ADR IC50 after 48 hrs by MTT assay

| SMILES | EC50 [nM] |
| --- | --- |
| O=C(Nc1ccc(N2CCOCC2)cc1)c1cccnc1NCc1ccncc1 | 329 |
| COc1cc2c(cc1OC)CN(CCc1ccc(NC(=O)c3cccnc3NCc3ccncc3)cc1)CC2 | 120 |

— BindingDB's records for doi:10.1021/acs.jmedchem.6b01879 (China Pharmaceutical University, 2017)
